Our source for the IC50 and inhibition values is patent publication US20260008758A1, “LINEAR DIPEPTIDYL PEPTIDASE 1 INHIBITORS AND USES THEREOF” (Insmed Incorporated, priority 2024, published 2026).

The target in experiment [1] is T1, human DPP1 enzyme (Homo sapiens (Human), UniProt P53634). Briefly: Human DPP1 enzyme IC50 assay. In kind it is biochemical. The conditions noted are these: recombinant human DPP1, H-Gly-Arg-AMC substrate 400 μM. The procedure: Test articles were applied to activated human DPP1 enzyme in Assay Buffer (25 mM MES pH 6.0, 50 mM NaCl, 5 mM DTT) in a total reaction volume of 125 μL. 25 μL of compound in Assay Buffer plus 5% DMSO was first added to 50 μL of activated human DPP1 enzyme at a concentration of 1 ng/μL and allowed to pre-incubate for 10 minutes at 37° C. after which 50 μL of 1000 μM H-Gly-Arg-AMC substrate (Bachem; St. Torrance, CA) was added, giving final substrate concentration of 400 μM and a final DMSO concentration of 1%. Substrate cleavage was measured for 90 minutes at 37° C., with fluorescence at Excitation/Emission 350/450 nm measured every 5 minutes. DPP1 concentration was interpolated based on its activity relative to a standard curve of activated human recombinant DPP1 enzyme. IC50 values for each compound were calculated via the XLFit (IDBS Version 5.3.1.3) Add-On to Microsoft Excel using the four parameter fit equation y={A+[(B-A)]/[1+((C/x)^D)]}, which appears as equation number 205 (4 Parameter Logistic Model or Sigmoidal Dose-Response Model) in XLFit. Default constraints were used for each Parameter.
T1 sequence (P53634 25-134): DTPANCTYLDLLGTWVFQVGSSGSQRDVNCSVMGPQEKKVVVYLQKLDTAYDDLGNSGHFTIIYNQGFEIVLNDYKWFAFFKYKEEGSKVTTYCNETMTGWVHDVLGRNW
T1 sequence (P53634 231-394): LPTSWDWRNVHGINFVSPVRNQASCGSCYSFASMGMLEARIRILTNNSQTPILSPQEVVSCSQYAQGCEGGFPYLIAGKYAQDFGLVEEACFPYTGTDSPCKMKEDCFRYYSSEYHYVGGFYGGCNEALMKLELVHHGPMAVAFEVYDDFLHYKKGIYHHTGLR
T1 sequence (P53634 395-463): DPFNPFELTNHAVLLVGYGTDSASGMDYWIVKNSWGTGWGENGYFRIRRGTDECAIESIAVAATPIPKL

Experiment [2] has as its target T2, DPP1 in HL-60 cells (Homo sapiens (Human), UniProt P53634). Briefly: DPP1 Cell IC50 assay. In kind it is cell-based. The conditions noted are these: H-Gly-Phe-AFC substrate, 60 min pre-incubation. The protocol: Media was changed every three to four days and cells were not allowed to exceed 1×10^6 cells per mL. Prior to assay, cells were collected by centrifugation at 500 rcf for 3 minutes, resuspended in PBS and counted. Cells were diluted in PBS to a concentration of 5×10^5 live cells per mL and transferred to black 96-well plates for assay, 60 μL per well. Test articles were diluted in PBS plus 0.5% DMSO, and 20 μL was added to each assay well. Compound was allowed to pre-incubate with cells with gentle shaking at 100 rpm for 60 minutes at 37° C. in a cell culture incubator maintained at 5% CO2, after which 20 μL of 500 μM H-Gly-Phe-AFC substrate (MP Biomedicals; Solon, OH) was added to each well. Plates were returned to the incubator with shaking at 100 rpm for 30 minutes, after which fluorescence was measured at Excitation/Emission 400/505 nm. % Inhibition was calculated from RFU values compared to control cell wells that received only PBS plus 0.5% DMSO. IC50 values for each compound were calculated via the XLFit (IDBS Version 5.3.1.3) Add-On to Microsoft Excel using the four parameter fit equation y=(A+((B-A)/(1+((C/x)^D)))), which appears as equation number 205 (4 Parameter Logistic Model or Sigmoidal Dose-Response Model) in XLFit.

In experiment [3] the target is T1, human DPP1 enzyme. Briefly: Human DPP1 enzyme single-point percent inhibition testing (HL-60 lysate, H-Gly-Arg-AMC substrate). In kind it is biochemical. The conditions noted are these: read-out: human DPP1 enzyme % inhibition @ 10 nM, 10 nM compound, 400 μM H-Gly-Arg-AMC, 10 min pre-incubation at 37° C.
For experiment [4], the target named is T2, DPP1 in HL-60 cells. Briefly: DPP1 cell single-point percent inhibition testing (HL-60 cells, H-Gly-Phe-AFC substrate). Format: cell-based. The conditions noted are these: read-out: DPP1 cell % inhibition @ 5 nM, 5 nM compound, 100 μM H-Gly-Phe-AFC, 60 min pre-incubation at 37° C.

T2 sequence (P53634 25-134): as the sequence (P53634 25-134) above
T2 sequence (P53634 231-394): as the sequence (P53634 231-394) above
T2 sequence (P53634 395-463): as the sequence (P53634 395-463) above

In the case of `Cn1c(=O)oc2ccc(-c3ccc(C[C@@H](C#N)NC(=O)CC(N)C4CCCCC4)cc3)cc21` (stereo partly drawn) [Compound 188], the IC50 on human DPP1 enzyme [1] was no less than 15 nM; on DPP1 in HL-60 cells [2] it was no less than 2.5 nM. As for `CN(C)C[C@H](O)C(=O)N[C@H](C#N)Cc1cc2c(cc1F)-c1ccc(C#N)cc1CO2` [Compound 277A, (2S)—N-[(1S)-1-cyano-2-{8-cyano-2-fluoro-6H-benzo[c]chromen-3-yl}ethyl]-3-(dimethylamino)-2-hydroxypropanamide], the IC50 was no less than 15 nM at human DPP1 enzyme [1] and no less than 2.5 nM on DPP1 in HL-60 cells [2].

Take `CCCCOCCn1c(=O)oc2ccc(-c3ccc(C[C@@H](C#N)NC(=O)[C@@H](O)CN(C)C)c(F)c3)cc21` [Compound 146, (2S)—N-[(1S)-2-{4-[3-(2-butoxyethyl)-2-oxo-1,3-benzoxazol-5-yl]-2-fluorophenyl}-1-cyanoethyl]-3-(dimethylamino)-2-hydroxypropanamide]: the figures for the half-maximal inhibitory concentration (IC50) on human DPP1 enzyme [1] and at DPP1 in HL-60 cells [2] were 5 to 15 nM and no less than 2.5 nM, respectively. Consider `CN1CCC2(CCc3ccc(-c4ccc(C[C@@H](C#N)NC(=O)C(C)(N)C5CCC5)c(F)c4)cc32)CC1` (stereo partly drawn) [Compound 269, 2-amino-N—((S)-1-cyano-2-(2-fluoro-4-(1′-methyl-2,3-dihydrospiro[indene-1,4′-piperidin]-6-yl)phenyl)ethyl)-2-cyclobutylpropanamide], for which the values for the IC50 at human DPP1 enzyme [1] and on DPP1 in HL-60 cells [2] were no more than 5 nM and no less than 2.5 nM, respectively. The like results for `C[C@@H](O)[C@](C)(N)C(=O)N[C@H](C#N)Cc1ccc(-c2ccc3oc(=O)n(C)c3c2)cc1` [Compound 171A, (2S,3R)-2-amino-N-[(1S)-1-cyano-2-[4-(3-methyl-2-oxo-1,3-benzoxazol-5-yl)phenyl]ethyl]-3-hydroxy-2-methylbutanamide] were, in that order, no less than 15 nM and no less than 2.5 nM.

As for `Cn1c(=O)oc2ccc(-c3ccc(C[C@@H](C#N)NC(=O)C(C)(N)C4CCC4)cc3)cc21` (stereo partly drawn) [Compound 220, 2-amino-N-[(1S)-1-cyano-2-[4-(3-methyl-2-oxo-1,3-benzoxazol-5-yl)phenyl]ethyl]-2-cyclobutylpropanamide], the IC50 on human DPP1 enzyme [1] is no more than 5 nM; at DPP1 in HL-60 cells [2], 1 to 2.5 nM. In the case of `CN(C)C[C@](C)(O)C(=O)N[C@H](C#N)Cc1ccc(-c2ccc3c(c2)C2(CCN(C)C2)OC3=O)cc1` (stereo partly drawn) [Compound 390], the inhibition at 0.01 µM at human DPP1 enzyme [3] was no less than 66.7%. For the same compound, the inhibition at 0.005 µM on DPP1 in HL-60 cells [4] was no more than 76.5%. With `CN(C)C[C@H](O)C(=O)N[C@H](C#N)Cc1ccc(-c2ccc3c(c2)C2(CCCN(C)C2)C(=O)N3C)cc1` (stereo partly drawn) [Compound 343], the inhibition at 0.01 µM on human DPP1 enzyme [3] was no more than 40%. Besides, the inhibition at 0.005 µM on DPP1 in HL-60 cells [4] was no more than 76.5%. `Cn1c(=O)oc2ccc(-c3ccc(C[C@@H](C#N)NC(=O)CC(N)C4CCCCC4)cc3)cc21` (stereo partly drawn) [Compound 190, 3-amino-N-[(1S)-1-cyano-2-[4-(3-methyl-2-oxo-2,3-dihydro-1,3-benzoxazol-5-yl)phenyl]ethyl]-3-cyclohexylpropanamide] had an IC50 on DPP1 in HL-60 cells [2] of no less than 2.5 nM. Consider `CN(C)C[C@](C)(O)C(=O)N[C@H](C#N)Cc1ccc(-c2ccc3c(c2)C2(CCN(C4COC4)CC2)OC3)cc1` [Compound 392], for which the inhibition at 0.01 µM at human DPP1 enzyme [3] was no less than 66.7%. Further, on DPP1 in HL-60 cells [4], the inhibition at 0.005 µM was no more than 76.5%. With `COCCN(C)CCn1c(=O)oc2ccc(-c3ccc(C[C@@H](C#N)NC(=O)[C@@](C)(O)CN(C)C)c(F)c3)cc21` [Compound 410], the inhibition at 0.01 µM on human DPP1 enzyme [3] is no less than 66.7%. The inhibition at 0.005 µM on DPP1 in HL-60 cells [4] was no less than 93.9%. For `CN(C)C[C@H](O)C(=O)N[C@H](C#N)Cc1ccc(-c2cnc3c(n2)CCCC3)cc1` [Compound 372], in that order: no more than 40% and no more than 76.5%. The like results for `CN(C)C[C@](C)(O)C(=O)N[C@H](C#N)Cc1ccc(-c2cnc3c(n2)CCCC3)cc1F` [Compound 418] were, in that order, 40 to 66.7% and no more than 76.5%. `CO[C@@H](CN(C)C)C(=O)NC(C#N)Cc1cc2c(cc1F)-c1ccc3oc(=O)n(C)c3c1CO2` (stereo partly drawn) [Compound 299]: the inhibition at 0.01 µM at human DPP1 enzyme [3] was no more than 40%. Moreover, at DPP1 in HL-60 cells [4], the inhibition at 0.005 µM is no more than 76.5%.

`CN(C)C[C@](C)(O)C(=O)N[C@H](C#N)Cc1ccc(-c2ccc3c(c2)C2(CCN(C)C2)OC3=O)cc1F` (stereo partly drawn) [Compound 403]: the inhibition at 0.01 µM at human DPP1 enzyme [3] is no less than 66.7%. The inhibition at 0.005 µM on DPP1 in HL-60 cells [4] fell in the range of 76.5 to 93.9%. The like results for `CN(C)CCn1c(=O)oc2ccc(-c3ccc(C[C@@H](C#N)NC(=O)[C@@](C)(O)CN(C)C)cc3)cc21` [Compound 386] were, in that order, no less than 66.7% and 76.5 to 93.9%. The like results for `Cc1cn2cc(-c3ccc(C[C@@H](C#N)NC(=O)[C@@H](O)CN(C)C)cc3)cc2c(C)n1` [Compound 345] were, in that order, no more than 40% and no more than 76.5%. The like results for `CO[C@@H](CN(C)C)C(=O)N[C@H](C#N)Cc1ccc(-c2ccc3oc(=O)n(C)c3c2)cc1F` [Compound 324] were, in that order, 40 to 66.7% and 76.5 to 93.9%.

With `CN(C)C[C@H](O)C(=O)N[C@H](C#N)Cc1ccc(-c2ccc3cnn(C)c3c2)cc1F` [Compound 374], the inhibition at 0.01 µM on human DPP1 enzyme [3] is no more than 40%. The inhibition at 0.005 µM on DPP1 in HL-60 cells [4] is no more than 76.5%.

With `CN(C)C[C@H](O)C(=O)N[C@H](C#N)Cc1ccc(-c2ccc3nnn(C)c3c2)cc1` [Compound 371], the inhibition at 0.01 µM at human DPP1 enzyme [3] is no more than 40%. For the same compound, the inhibition at 0.005 µM at DPP1 in HL-60 cells [4] was no more than 76.5%.

Regarding `CO[C@@H](CN(C)C)C(=O)NC(C#N)Cc1cc2c(cc1F)-c1cc(C3COC3)c(F)cc1CO2` (stereo partly drawn) [Compound 295], the inhibition at 0.01 µM on human DPP1 enzyme [3] lay in the range of 40 to 66.7%. Moreover, the inhibition at 0.005 µM on DPP1 in HL-60 cells [4] is no more than 76.5%. The like results for `CN(C)C[C@H](O)C(=O)N[C@H](C#N)Cc1ccc(-c2ccc3oc(=O)n(CCN4CCOCC4)c3c2)cc1` [Compound 351] were, in that order, no more than 40% and no more than 76.5%. As to `CN(C)C[C@H](O)C(=O)N[C@H](C#N)Cc1ccc(-c2ccc3c(c2)C2(CCN(C)C2)OC3=O)cc1` (stereo partly drawn) [Compound 348], at human DPP1 enzyme [3], the inhibition at 0.01 µM fell in the range of 40 to 66.7%. For the same compound, the inhibition at 0.005 µM on DPP1 in HL-60 cells [4] is no more than 76.5%. The like results for `CN(C)C[C@H](O)C(=O)N[C@H](C#N)Cc1ccc(-c2ccc3c(c2)C2(CN(C)C2)OC3=O)cc1F` [Compound 359] were, in that order, 40 to 66.7% and no more than 76.5%. The like results for `CO[C@@H](CN(C)C)C(=O)N[C@H](C#N)Cc1cc2c(cc1F)-c1ccc(C#N)cc1CO2` [Compound 296] were, in that order, no more than 40% and no more than 76.5%. For `CN(C)C[C@](C)(O)C(=O)N[C@H](C#N)Cc1ccc(-c2ccc3c(c2)C2(CCN(C4COC4)CC2)OC3)cc1F` [Compound 405], in that order: no less than 66.7% and 76.5 to 93.9%. For `CO[C@@H](CN(C)C)C(=O)N[C@H](C#N)Cc1ccc(-c2ccc3cnn(C)c3c2)cc1` [Compound 328], the inhibition at 0.01 µM at human DPP1 enzyme [3] was no more than 40%. Further, the inhibition at 0.005 µM on DPP1 in HL-60 cells [4] is no more than 76.5%. The like results for `CN(C)C[C@](C)(O)C(=O)N[C@H](C#N)Cc1ccc(-c2ccc3c(c2)C2(CN(C)C2)OC3=O)cc1` [Compound 388] were, in that order, no less than 66.7% and no less than 93.9%. The like results for `CO[C@@H](CN(C)C)C(=O)N[C@H](C#N)Cc1ccc(-c2ccc3cnn(C4CCN(C)CC4)c3c2)cc1` [Compound 307] were, in that order, 40 to 66.7% and no more than 76.5%.
